Reference: ChEMBL document CHEMBL1143470, “Synthesis and anticonvulsant activity of 7-alkoxyl-4,5-dihydro-[1,2,4]triazolo[4,3-a]quinolines” (Bioorg Med Chem Lett, 2005)

Key:
[1] = test system: Mus musculus; assay: Concentration producing seizure after 0.5 hrs tested by MES (Maximal ElectroShock test) done after 30 min of administration in mouse; na=no activity; format: functional, organism-based
[2] = species: Mus musculus; assay: Concentration producing anticonvulsant drug-induced neurologic deficit after 4 hrs done by rotarod ataxia test in mouse; na=no activity; format: functional, organism-based
[3] = species: Mus musculus; assay: Concentration of compound producing anticonvulsant drug-induced neurologic deficit after 0.5 hrs done by rotarod ataxia test in mouse; na=no activity; format: functional, organism-based
[4] = test system: Mus musculus; assay: Concentration producing seizure after 0.5 hrs tested by ScMet (Subcutaneous pentylenetetrazole test) done after 30 min of administration of 85 mg/kg pentylenetetrazol in mouse; na=no activity; format: functional, organism-based; set-up: dose 85 mg/kg
[5] = test system: Rattus norvegicus; assay: Neurotoxicity expressed as median toxic dose (TD50) produced after Rotarod ataxia test in mouse by i.p. administration (range 62.8-72.9); format: functional; settings: ip
[6] = test system: Mus musculus; assay: Concentration producing seizure after 4 hrs tested by MES (Maximal ElectroShock test) done after 30 min of administration in mouse; na=no activity; format: functional, organism-based
[7] = test system: Mus musculus; assay: Concentration producing seizure after 4 hrs tested by ScMet (Subcutaneous pentylenetetrazole test) done after 30 min of administration of 85 mg/kg pentylenetetrazol in mouse; na=no activity; format: functional, organism-based; set-up: dose 85 mg/kg
[8] = test system: Mus musculus; assay: Concentration producing seizure after 0.5 hrs tested by MES (Maximal ElectroShock test) done after 30 min of administration in mouse
[9] = test system: Mus musculus; assay: Concentration producing seizure after 0.5 hrs tested by ScMet (Subcutaneous pentylenetetrazole test) done after 30 min of administration of 85 mg/kg pentylenetetrazol in mouse
[10] = species: Mus musculus; assay: Concentration of compound producing anticonvulsant drug-inducedneurologic deficit after 0.5 hrs done by rotarod ataxia test in mouse; settings: in vivo
[11] = species: Mus musculus; assay: Protective index (TD50/ED50) produced by compound in mouse after MES test
[12] = species: Mus musculus; assay: Protective index (TD50/ED50) produced by compound in mouse after ScMet test
[13] = test system: Mus musculus; assay: Anticonvulsant activity of compound expressed in terms of median effective dose (ED50) produced after MES test in mouse by i.p. administration (range 19.5-28); settings: ip
[14] = test system: Mus musculus; assay: Anticonvulsant activity of compound expressed in terms of median effective dose (ED50) produced after ScMet test in mouse by i.p. administration (range 21.4-28.2); settings: ip
[15] = test system: Mus musculus; assay: Anticonvulsant activity of compound expressed in terms of median effective dose (ED50) produced after ScMet test in mouse by i.p. administration; settings: ip
[16] = test system: Mus musculus; assay: Concentration producing seizure after 4 hrs tested by MES (Maximal ElectroShock test) done after 30 min of administration in mouse
[17] = species: Mus musculus; assay: Concentration of compound producing anticonvulsant drug-inducedneurologic deficit after 0.5 hrs done by rotarod ataxia test in mouse; settings: in vivo; remark: listed apart in the source
[18] = test system: Mus musculus; assay: Anticonvulsant activity of compound expressed in terms of median effective dose (ED50) produced after MES test in mouse by i.p. administration (range 12.9-10.9); settings: ip
[19] = test system: Mus musculus; assay: Anticonvulsant activity of compound expressed in terms of median effective dose (ED50) produced after ScMet test in mouse by i.p. administration (range 5.7-7.9); settings: ip
[20] = test system: Mus musculus; assay: Anticonvulsant activity of compound expressed in terms of median effective dose (ED50) produced after MES test in mouse by i.p. administration (range 247-338); settings: ip
[21] = test system: Mus musculus; assay: Anticonvulsant activity of compound expressed in terms of median effective dose (ED50) produced after ScMet test in mouse by i.p. administration (range 123-177); settings: ip
[22] = test system: Mus musculus; assay: Anticonvulsant activity of compound expressed in terms of median effective dose (ED50) produced after MES test in mouse by i.p. administration (range 17-24.5); settings: ip
[23] = test system: Mus musculus; assay: Anticonvulsant activity of compound expressed in terms of median effective dose (ED50) produced after ScMet test in mouse by i.p. administration (range 9.3-13.1); settings: ip
[24] = test system: Mus musculus; assay: Anticonvulsant activity of compound expressed in terms of median effective dose (ED50) produced after MES test in mouse by i.p. administration (range 14.8-20.4); settings: ip
[25] = test system: Mus musculus; assay: Anticonvulsant activity of compound expressed in terms of median effective dose (ED50) produced after ScMet test in mouse by i.p. administration (range 21.6-26.7); settings: ip
[26] = test system: Mus musculus; assay: Anticonvulsant activity of compound expressed in terms of median effective dose (ED50) produced after MES test in mouse by i.p. administration (range 5.5-14.1); settings: ip
[27] = test system: Mus musculus; assay: Anticonvulsant activity of compound expressed in terms of median effective dose (ED50) produced after MES test in mouse by i.p. administration (range 11.5-15.8); settings: ip
[28] = test system: Mus musculus; assay: Anticonvulsant activity of compound expressed in terms of median effective dose (ED50) produced after ScMet test in mouse by i.p. administration (range 12.5-20.6); settings: ip
[29] = test system: Mus musculus; assay: Concentration producing seizure after 0.5 hrs tested by ScMet (Subcutaneous pentylenetetrazole test) done after 30 min of administration of 85 mg/kg pentylenetetrazol in mouse (no activity)

| Compound | DOSE [2] | DOSE [3] | DOSE [6] | DOSE [7] | Dose [8] [mg/kg] | Dose [9] [mg/kg] | Dose [10] [mg/kg] | PI [12] | further results |
| --- | --- | --- | --- | --- | --- | --- | --- | --- | --- |
| CCOc1ccc2c(c1)CCc1nncn1-2 | No activity | No activity |  |  |  |  |  |  | DOSE [1]: No activity; DOSE [4]: No activity |
| CCC1(c2ccccc2)C(=O)NC(=O)NC1=O [PHENOBARBITAL] |  |  |  |  |  |  |  |  | ED50 [5]: 69 mg/kg |
| Clc1ccc(COc2ccc3c(c2)CCc2nncn2-3)cc1 | No activity | No activity | No activity | No activity | 300 | 300 |  |  |  |
| CCCOc1ccc2c(c1)CCc1nncn1-2 | No activity |  | No activity | No activity | 100 | 100 | 100 |  |  |
| Brc1cccc(COc2ccc3c(c2)CCc2nncn2-3)c1 | No activity |  | No activity | No activity | 30 | 30 | 100 | 4 | PI [11]: 4.2; ED50 [13]: 23.3 mg/kg; ED50 [14]: 24.5 mg/kg |
| O=C1NC(=O)C(c2ccccc2)(c2ccccc2)N1 [PHENYTOIN] |  |  |  |  |  |  |  | <0.22 | ED50 [15]: > 300 mg/kg |
| Fc1ccc(COc2ccc3c(c2)CCc2nncn2-3)cc1 | No activity |  |  | No activity | 30 | 30 |  | 8.1 | PI [11]: 4.6; Dose [16]: 30 mg/kg; Dose [17]: 100 mg/kg; ED50 [18]: 11.8 mg/kg; ED50 [19]: 6.7 mg/kg |
| Clc1ccc(COc2ccc3c(c2)CCc2nncn2-3)cc1Cl | No activity | No activity | No activity | No activity |  |  |  |  | DOSE [1]: No activity; DOSE [4]: No activity |
| Fc1ccccc1COc1ccc2c(c1)CCc1nncn1-2 | No activity | No activity | No activity | No activity | 300 | 300 |  |  |  |
| CCCC(CCC)C(=O)O [VALPROIC ACID] |  |  |  |  |  |  |  |  | ED50 [20]: 272 mg/kg; ED50 [21]: 149 mg/kg |
| COc1ccc(COc2ccc3c(c2)CCc2nncn2-3)cc1 | No activity |  | No activity | No activity | 100 | 100 | 300 |  |  |
| CCCCCCCCCCCCOc1ccc2c(c1)CCc1nncn1-2 | No activity | No activity | No activity | No activity |  |  |  |  | DOSE [1]: No activity; DOSE [4]: No activity |
| Cc1ccc(COc2ccc3c(c2)CCc2nncn2-3)cc1 | No activity |  | No activity | No activity | 30 | 30 | 100 | 5.9 | PI [11]: 3.2; ED50 [22]: 20.5 mg/kg; ED50 [23]: 11.1 mg/kg |
| c1ccc(COc2ccc3c(c2)CCc2nncn2-3)cc1 | No activity |  | No activity | No activity | 30 | 100 | 100 | 2.6 | PI [11]: 3.5; ED50 [24]: 17.3 mg/kg; ED50 [25]: 24 mg/kg |
| NC(=O)N1c2ccccc2C=Cc2ccccc21 [CARBAMAZEPINE] |  |  |  |  |  |  |  | <0.22 | ED50 [15]: > 100 mg/kg; ED50 [26]: 8.8 mg/kg |
| Fc1cccc(F)c1COc1ccc2c(c1)CCc1nncn1-2 | No activity | No activity | No activity | No activity |  |  |  |  | DOSE [1]: No activity; DOSE [4]: No activity |
| c1cc2c(cc1COc1ccc3c(c1)CCc1nncn1-3)OCO2 | No activity |  | No activity | No activity | 100 | 100 | 300 |  |  |
| CCCCCCOc1ccc2c(c1)CCc1nncn1-2 | No activity |  | No activity | No activity | 30 | 30 | 100 | 1.7 | PI [11]: 2.2; ED50 [27]: 13.5 mg/kg; ED50 [28]: 17.7 mg/kg |
| CCCCCCCCOc1ccc2c(c1)CCc1nncn1-2 | No activity | No activity | No activity | No activity | 100 |  |  |  | Dose [29]: 100 mg/kg |
| CCCCOc1ccc2c(c1)CCc1nncn1-2 | No activity |  | No activity | No activity | 100 | 100 | 100 |  |  |
